# Data: the supplement of paper PMC10307832
# Experiments:
# Assay in all cases: relative viability (nuclei count vs DMSO), 5 days (fraction); higher = more cells survive
# Ibrutinib + Phenformin = compound: C=CC(=O)N1CCC[C@@H](n2nc(-c3ccc(Oc4ccccc4)cc3)c3c(N)ncnc32)C1 [Ibrutinib] + N=C(N)NC(=N)NCCc1ccccc1 [Phenformin] (partner 250 µM)
# Summary of the method: (§1)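 After 5 days of treatment, lung cancer cells in 1536-well plates were fixed and stained in a single step (final 0.05% Triton X-100, 1% formaldehyde, 1 ug/ml Hoechst) and their nuclei counted on 4× images. Treatment had been applied by pin tool the day after seeding as one drug alone or as a fixed anchor-drug dose with five library-drug doses (not always all listed) in √10 steps. Relative viability is the nuclei count of treated wells divided by that of vehicle wells, and values are medians of duplicate plates.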
# Ibrutinib + Vorinostat = compound: C=CC(=O)N1CCC[C@@H](n2nc(-c3ccc(Oc4ccccc4)cc3)c3c(N)ncnc32)C1 [Ibrutinib] + O=C(CCCCCCC(=O)Nc1ccccc1)NO [Vorinostat] (partner 1 µM)
# Summary of the method: as §1
# BMX-IN-1 + Foretinib = compound: C=CC(=O)Nc1cc(-n2c(=O)ccc3cnc4ccc(-c5ccc(NS(C)(=O)=O)cc5)cc4c32)ccc1C [BMX-IN-1] + COc1cc2c(Oc3ccc(NC(=O)C4(C(=O)Nc5ccc(F)cc5)CC4)cc3F)ccnc2cc1OCCCN1CCOCC1 [Foretinib] (partner 0.25 µM)
# Summary of the method: as §1
# Ibrutinib + Tozasertib = compound: C=CC(=O)N1CCC[C@@H](n2nc(-c3ccc(Oc4ccccc4)cc3)c3c(N)ncnc32)C1 [Ibrutinib] + Cc1cc(Nc2cc(N3CCN(C)CC3)nc(Sc3ccc(NC(=O)C4CC4)cc3)n2)n[nH]1 [Tozasertib] (partner 0.1 µM)
# Summary of the method: as §1
cell line,measurement,setting,value
SK-MES-1,relative viability,Ibrutinib + Phenformin; first compound 0.005 µM,0.733
same,relative viability,Ibrutinib + Phenformin; first compound 0.01581 µM,0.629
same,relative viability,Ibrutinib + Phenformin; first compound 0.05 µM,0.638
same,relative viability,Ibrutinib + Phenformin; first compound 0.1581 µM,0.704
same,relative viability,Ibrutinib + Phenformin; first compound 0.5 µM,0.501
same,relative viability,Ibrutinib + Vorinostat; first compound 0.005 µM,1.16
same,relative viability,Ibrutinib + Vorinostat; first compound 0.01581 µM,1.05
same,relative viability,Ibrutinib + Vorinostat; first compound 0.05 µM,1.07
same,relative viability,Ibrutinib + Vorinostat; first compound 0.1581 µM,1.26
same,relative viability,Ibrutinib + Vorinostat; first compound 0.5 µM,0.747
same,relative viability,BMX-IN-1 + Foretinib; first compound 0.02 µM,0.877
same,relative viability,BMX-IN-1 + Foretinib; first compound 0.2 µM,1.02
same,relative viability,BMX-IN-1 + Foretinib; first compound 0.6325 µM,0.967
same,relative viability,BMX-IN-1 + Foretinib; first compound 2 µM,0.728
same,relative viability,Ibrutinib + Tozasertib; first compound 0.005 µM,0.997
same,relative viability,Ibrutinib + Tozasertib; first compound 0.01581 µM,0.872
same,relative viability,Ibrutinib + Tozasertib; first compound 0.05 µM,0.965
same,relative viability,Ibrutinib + Tozasertib; first compound 0.1581 µM,1.03
same,relative viability,Ibrutinib + Tozasertib; first compound 0.5 µM,0.669
